Experimental data as given in US20260015311A1, “AMINO LIPID COMPOUND, PREPARATION METHOD THEREFOR, AND USE THEREOF” (SHENZHEN SHENXIN BIOTECHNOLOGY CO., LTD., priority 2022, published 2026).

Assays:
[1] = tested on: Fluc mRNA; experiment: In vivo delivery of luciferase mRNA (Fluc mRNA) by lipid nanoparticles, living imaging; parameters: species or system BALB/c mice; conditions: after 12 hours, total fluorescence
Experimental: (§1) The amino lipid compounds of the present disclosure were mixed with DOPE, cholesterol, and PEG2000-DMG in a molar ratio of 45:10:42.5:2.5 and dissolved in absolute ethanol. By using a microinjection pump, the resultant ethanol solution and a sodium acetate solution (50 mM, pH=4.0) were mixed in a ratio of 1:3 in a microfluidic chip to prepare a crude solution of lipid nanoparticles, which were then dialyzed in 1×PBS at a controlled temperature of 4° C. for 6 h using a dialysis box (Fisher, MWCO 20,000), and filtered through a 0.22 μm microporous filter membrane before use.
(§2) The formulation method was the same as the formulation method 1, except that the molar ratio of the amino lipid compounds to DSPC, cholesterol and PEG2000-DMG was 50:10:38.5:1.5.
The lipid nanoparticles prepared according to the above formulation method 1 or 2 were used in the biological experiments below for evaluating the performances of in vivo delivery of luciferase mRNA (Fluc mRNA). For the lipid nanoparticles obtained in the formulation method 1, the mass ratio of the amino lipid compounds to the luciferase mRNA was about 10:1, and the lipid nanoparticles were administered subcutaneously; and the lipid nanoparticles obtained in the formulation method 2 were administered by tail vein and intramuscular injection.
6-week-old female BALB/c mice weighed about 20 g were selected and fed in a SPF-grade feeding room. Animal tests were conducted strictly according to the guidelines of National Health institutions and the requirements of animal ethics.
(§3) 9 mice were assigned randomly to each group and injected with the lipid nanoparticles at a dosage of 0.5 mg/kg by three administration routes, i.e., subcutaneous, intramuscular and tail vein injection (three mice for each administration route). After 12 hours, D-luciferin potassium salt (200 μL, 10 mg/mL) was injected into each mouse through the tail vein. After 10 minutes, the total fluorescence intensity of each mouse was observed on a living imaging system (IVIS-200, Xenogen) and taken photographs for record. The expression intensities of Fluc mRNA delivered by representative amino lipid compounds through the three administration routes are shown in Table 2-4. MC3 was used as a control and SM102 was used as a comparative compound.

[2] = Stability of lipid nanoparticles at 25° C., DLS particle size and PDI; format: physicochemical; conditions: for particle size change after four weeks of storage: 25° C., week 4 versus week 0; for particle size: preparation day (week 0)
Experimental: as §1
(§4) Preparation of Lipid Nanoparticles: The Formulation Method 1 was Used to Prepare LNPs for Subcutaneous Administration.
Characterization of lipid nanoparticles: The particle size and PDI of the prepared lipid nanoparticles were measured by Nano-ZSZEN 3600 (Malvern). 40 μL of the LNP solution was taken for particle size measurement with circulation for three times, 30 seconds for each circulation.
(§5) The particle size measurements were carried out on the day of preparation (week 0), and after one week (week 1), two weeks (week 2), and four weeks (week 4) of storage at 25° C., and the expression intensities of Fluc mRNA delivered by subcutaneous administration were determined on the day of preparation (week 0) and after four weeks (week 4).

[3] = tested on: Fluc mRNA; experiment: Stability of lipid nanoparticles at 25° C., subcutaneous expression of Fluc mRNA; format: in vivo, mice; conditions: for Fluc expression change after four weeks: 25° C., week 4 versus week 0
Experimental: as §1, §3, §4, §5

[4] = tested on: Fluc mRNA; experiment: Activity of lipid nanoparticles of formulation method 2, Fluc mRNA by intramuscular administration; format: in vivo, BALB/c mice
Experimental: as §2, §3
Preparation of Lipid Nanoparticles: LNPs were Prepared Using the Formulation Method 2 for Intramuscular Administration.
The measurement method was the same as that of Test Example 1.

[5] = tested on: liver; experiment: Targeting assay, fluorescence in liver after intramuscular injection; format: in vivo, mice; conditions: 15 μg mRNA per animal, 6 h after injection, dissected liver
Experimental: The lipids were mixed with DSPC, CHO-HP, M-DMG2000 (i.e. PEG2000-DMG) in a molar ratio of 50:10:38.5:1.5 and dissolved in absolute ethanol. mRNA was dissolved in a sodium acetate solution (0.2M, pH=5.0). The samples of various prescriptions were prepared at a water phase:alcohol phase=9 ml/min: 3 ml/min by using a microfluidic equipment (MPE-L2) and a chip (SN.000035). The two phases were mixed by injecting them into the microfluidic chip according to the interface requirements, and then the drug solution was loaded into a 100KD dialysis bags, immersed in a beaker containing 1 L dialysis solution and wrapped with aluminum foil, and dialyzed at 100 rpm for 1 h at room temperature, and then the dialysis solution was replaced and the dialysis continued for 1 h.
Formulation of dialysis solution: 1×PBS+8% sucrose solution: 2 packets of 1×PBS powder were taken into a beaker, dissolved with 2 L DEPC water, added with 160 g of sucrose additionally, and mixed to obtain the 1×PBS+8% sucrose solution.
The mass ratio of mRNA:Lipids in the obtained lipid nanoparticles were about 1:10.
Fluorescent protein-encoding mRNA-LNP preparations containing Compound (I-6-II), MC3 or SM102, respectively were prepared by using the formulation method of mRNA lipid nanoparticle (LNP) preparations as described above, selecting a fluorescent protein-encoding mRNA as the mRNA and the compound (I-6-II), MC3 or SM102, respectively as the lipid.
Each preparation to be tested was administered to mice by intramuscular injection, with each animal receiving 15 μg mRNA preparation sample. 6 h after sample injection, the mice were anesthetized by isoflurane inhalation, and injected intraperitoneally with 200 μL of D-Luciferin (concentration 10 mg/ml) luciferase development substrate. […] After development of living imaging of the intramuscularly injected animals, they were immediately dissected, followed by observation of the fluorescence in the liver immediately after the dissection.

[6] = subcutaneous administration, formulation method 1, 0.5 mg/kg
[7] = week 0, subcutaneous administration
[8] = week 4, storage at 25° C., subcutaneous administration
[9] = intramuscular injection, formulation method 2, 0.5 mg/kg
[10] = tail vein administration, formulation method 2, 0.5 mg/kg

| particle size [2] | Z-Average ([2]; week 0 (day of preparation)) [nm·days] | PDI ([2]; week 1, storage at 25° C.) | Z-Average ([2]; week 1, storage at 25° C.) [nm·days] | PDI ([2]; week 2, storage at 25° C.) | Z-Average ([2]; week 2, storage at 25° C.) [nm·days] | Z-Average ([2]; week 4, storage at 25° C.) [nm·days] | SMILES | Fluorescence intensity (expression intensity of Fluc mRNA) [1, 6] | Fluc expression change after four weeks [3] | Fluc Expression intensities [3, 7] | Fluc Expression intensities [3, 8] | Fluorescence intensity (expression intensity of Fluc mRNA) [1, 9] | Fluorescence intensity (expression intensity of Fluc mRNA) [4] | Fluorescence intensity (expression intensity of Fluc mRNA) [1, 10] [E + 06] | other results |
| --- | --- | --- | --- | --- | --- | --- | --- | --- | --- | --- | --- | --- | --- | --- | --- |
| about 100 nm | 105 | 0.05 | 110 | 0.06 | 110 | 115 | CCCCCCCCCCCOC(=O)CCCCCN(CCCCCCCC(=O)OC(CCCCCCCC)CCCCCCCC)C1CCC(O)C1 (stereo not shown) [Compound 5] | 1.4E + 07 | did not decrease significantly | 1.4E+07 | 1.1E+07 |  |  |  | particle size change after four weeks of storage [2]: did not increase significantly |
| about 100 nm | 115 | 0.03 | 120 | 0.06 | 125 | 125 | CCCCCCCCCOC(=O)CCCCCCCN(CCCCCCOC(=O)C(CCCCCC)CCCCCCCC)C1CCCC(O)C1 (stereo not shown) [Compound 9] | 4.2E + 07 | did not decrease significantly | 4.2E+07 | 3.1E+07 | 3.7E + 07 |  |  | particle size change after four weeks of storage [2]: did not increase significantly |
|  |  |  |  |  |  |  | CCCCCCCCC(CCCCCC)OC(=O)CCCCCN(CCCCCC(=O)OC(CCCCCC)CCCCCCCC)C1CCC(O)CC1 (stereo not shown) [Comparative compound 8] |  |  |  |  |  | 2.1E + 06 |  |  |
|  |  |  |  |  |  |  | CCCCCCCCCOC(=O)CCCCCCCN(CCCCCCCC(=O)OC(CCCCCCCC)CCCCCCCC)C1CCCC(OC)C1 (stereo not shown) [Compound 16] | 1.3E + 06 |  |  |  |  |  |  |  |
|  |  |  |  |  |  |  | CCCCCCCCCOC(=O)CCCCCCCN(CCCCCCCC(=O)OC(CCCCCCCC)CCCCCCCC)C1CCCC1O (stereo not shown) [Comparative compound 1] |  |  |  |  |  | 1.7E + 05 |  |  |
|  |  |  |  |  |  |  | CCCCCCCCC(CCCCCC)C(=O)OCCCCCCN(CCCCCCOC(=O)C(CCCCCC)CCCCCCCC)C1CCCC(O)C1 (stereo not shown) [Compound 14] |  |  |  |  | 8.2E + 06 |  | 4.1 |  |
|  |  |  |  |  |  |  | CCCCCCCCCOC(=O)CCCCCCCN(CCCCCCCC(=O)OC(CCCCCCCC)CCCCCCCC)C1CCCC(F)C1 (stereo not shown) [Compound 18] |  |  |  |  | 7.8E + 06 |  |  |  |
|  |  |  |  |  |  |  | CCCCCCCCC(CCCCCC)OC(=O)CCCCCN(CCCCCCOC(=O)C(CCCCCC)CCCCCCCC)C1CCCC(O)C1 (stereo not shown) [Compound 15] | 4.7E + 07 |  |  |  | 1.8E + 07 |  | 3.5 |  |
| about 100 nm | 120 | 0.16 | 145 | 0.21 | 195 | 245 | CCCCCCCCCOC(=O)CCCCCCCN(CCO)CCCCCCCC(=O)OC(CCCCCCCC)CCCCCCCC [SM102, reference compound] | 2.4E + 07 | decreased significantly | 2.4E+07 | 3.6E+06 | 4.6E + 07 |  | 7.4 | PDI ([2]; week 4, storage at 25° C.): 0.28; fluorescence intensity in liver [5]: 3.23E+06 |
|  |  |  |  |  |  |  | CCCCCCCCC(CCCCCC)OC(=O)CCCCCN(CCCCCC(=O)OC(CCCCCC)CCCCCCCC)C1CCCC(O)C1 (stereo not shown) [Compound 8] |  |  |  |  | 9.2E + 06 | 9.2E + 06 | 5.1 |  |
